Each block holds one compound with its values, some of them ahead of it.
How the values were obtained:
Type in all cases: biochemical
Pim-1 = Pim-1 (Homo sapiens (Human), UniProt P11309); assay: Pim-1 kinase assay; settings: 1 mM ATP; read-out: PIM1 IC50
Description: (§1) Pim-1 and Pim-3 kinase assays—20 μL reactions were run in white 384 well polystyrene plates dotted with 0.8 μL compound/DMSO in the assay buffer (50 mM Tris, pH 7.5, 0.01% Tween-20, 5 mM mgCl2, 0.01% BSA, 5 mM DTT), containing 0.05 μM Biotin-labeled BAD peptide substrate (AnaSpec 62269), 1 mM ATP, and 2.5 pM (Pim-1, Invitrogen PV3503) or 1.25 pM (Pim-3, Millipore 14-738) enzyme for 1 h at 25° C. Reactions were stopped by addition of 10 μL STOP Buffer (150 mM Tris, pH=7.5, 150 mM NaCl, 75 mM EDTA, 0.01% Tween-20, 0.3% BSA,) supplemented with Phospho-Bad (Ser112) Antibody (Cell Signaling 9291) diluted 666-fold, and Streptavidin donor beads (PerkinElmer 6760002) along with Protein-A acceptor beads (PerkinElmer 6760137) at […]. Supplementation of the STOP buffer with beads and stopping the reactions were done under reduced light. Prior to the stopping reactions STOP buffer with beads was preincubated for 1 h in the dark at room temperature. After stopping the reactions, plates were incubated for 1 h in the dark at room temperature before reading on a PHERAstar FS plate reader (BMG Labtech) under reduced light.

Pim-2 = Pim-2 (Homo sapiens (Human), UniProt Q9P1W9); assay: Pim-2 kinase assay; settings: 1 mM ATP; read-out: PIM2 IC50
Sequence of Pim-2 (Q9P1W9 whole entry): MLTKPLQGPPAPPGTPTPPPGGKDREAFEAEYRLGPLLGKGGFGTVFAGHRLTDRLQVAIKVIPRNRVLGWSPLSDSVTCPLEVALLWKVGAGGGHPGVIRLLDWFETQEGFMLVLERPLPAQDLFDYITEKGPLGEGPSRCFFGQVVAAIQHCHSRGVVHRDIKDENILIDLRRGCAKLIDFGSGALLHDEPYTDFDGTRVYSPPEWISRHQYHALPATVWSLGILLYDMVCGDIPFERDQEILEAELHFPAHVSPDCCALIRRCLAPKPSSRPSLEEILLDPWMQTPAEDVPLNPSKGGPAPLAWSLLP
Description: Pim-2 kinase assay—20 μL reactions were run in white 384 well polystyrene plates dotted with 0.8 μL compound/DMSO in the assay buffer (50 mM Tris, pH 7.5, 0.01% Tween-20, 5 mM mgCl2, 0.01% BSA, 5 mM DTT), containing 0.05 μM Fluorescein-labeled CREBtide peptide substrate (Invitrogen PV3508), 1 mM ATP, and 1 nM enzyme (Invitrogen PV3649) for 2 h at 25° C. Reactions were stopped by addition of 10 μL TR-FRET Dilution Buffer (Invitrogen PV3574) with 30 mM EDTA and 1.5 nM LanthaScreen Tb-CREB pSer133 antibody (Invitrogen PV3566). After 30 min. incubation at room temperature, plates were read on a PHERAstar FS plate reader (BMG Labtech).

Pim-3 = Pim-3 (Homo sapiens (Human), UniProt Q86V86); assay: Pim-3 kinase assay; settings: 1 mM ATP; read-out: PIM3 IC50
Description: as §1

Sequence of Pim-1 (P11309 whole entry): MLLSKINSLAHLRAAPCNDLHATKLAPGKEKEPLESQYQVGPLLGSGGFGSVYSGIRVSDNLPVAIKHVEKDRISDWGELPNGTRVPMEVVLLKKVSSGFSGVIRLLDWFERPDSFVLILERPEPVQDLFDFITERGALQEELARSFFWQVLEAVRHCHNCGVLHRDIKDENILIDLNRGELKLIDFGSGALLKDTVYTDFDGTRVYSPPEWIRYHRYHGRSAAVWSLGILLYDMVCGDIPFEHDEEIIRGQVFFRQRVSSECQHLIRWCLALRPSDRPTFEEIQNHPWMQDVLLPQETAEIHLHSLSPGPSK

SMILES: C[C@@H]1C[C@H](N)C[C@H](c2ccncc2NC(=O)c2ccc(F)c3cc(N4CCN5C(=O)CCC5C4)cnc23)C1 (stereo partly drawn) [Example 84, N-(4-((1R,3S,5S)-3-Amino-5-methylcyclohexyl)pyridin-3-yl)-5-fluoro-3-(6-oxohexahydropyrrolo[1,2-a]pyrazin-2(1H)-yl)quinoline-8-carboxamide]
- IC50 (Pim-1): ≤ 10 nM
- IC50 (Pim-2): 100 to 1000 nM
- IC50 (Pim-3): ≤ 10 nM

SMILES: C[C@@H]1C[C@H](N)C[C@H](c2ccncc2NC(=O)c2ccc(F)c3cc(N(C)C4CCCOC4)cnc23)C1 (stereo partly drawn) [Example 151]
- IC50 (Pim-1): ≤ 10 nM
- IC50 (Pim-2): ≤ 100 nM
- IC50 (Pim-3): ≤ 10 nM

SMILES: C[C@@H]1C[C@H](N)C[C@H](c2ccncc2NC(=O)c2ccc(F)c3cc(N4CCCC4)cnc23)C1 [Example 3, N-{4-[(1R,3S,5S)-3-Amino-5-methylcyclohexyl]pyridin-3-yl}-5-fluoro-3-pyrrolidin-1-ylquinoline-8-carboxamide]
- IC50 (Pim-1): ≤ 10 nM
- IC50 (Pim-2): 100 to 1000 nM
- IC50 (Pim-3): 10 to 50 nM

SMILES: C[C@@H]1C[C@H](N)C[C@H](c2ccncc2NC(=O)c2ccc(F)c3cc(N(C)c4ncccc4F)cnc23)C1 [Example 142, N-(4-((1R,3S,5S)-3-Amino-5-methylcyclohexyl)pyridin-3-yl)-5-fluoro-3-((3-fluoropyridin-2-yl)(methyl)amino)quinoline-8-carboxamide]
- IC50 (Pim-1): ≤ 10 nM
- IC50 (Pim-2): ≤ 100 nM
- IC50 (Pim-3): ≤ 10 nM

SMILES: C[C@@H]1C[C@H](N)C[C@H](c2ccncc2NC(=O)c2ccc(F)c3cc(N4CC[C@H]4CO)cnc23)C1 [Example 123, N-(4-((1R,3S,5S)-3-Amino-5-methylcyclohexyl)pyridin-3-yl)-5-fluoro-3-((S)-2-(hydroxymethyl)azetidin-1-yl)quinoline-8-carboxamide]
- IC50 (Pim-1): ≤ 10 nM
- IC50 (Pim-2): ≤ 100 nM
- IC50 (Pim-3): ≤ 10 nM

SMILES: C[C@@H]1C[C@H](N)C[C@H](c2ccncc2NC(=O)c2ccc(F)c3cc(C#CC4CC4)cnc23)C1 [Example 14, N-{4-[(1R,3S,5S)-3-Amino-5-methylcyclohexyl]pyridin-3-yl}-3-(cyclopropylethynyl)-5-fluoroquinoline-8-carboxamide]
- IC50 (Pim-1): ≤ 10 nM
- IC50 (Pim-2): 100 to 1000 nM
- IC50 (Pim-3): ≤ 10 nM

SMILES: C[C@@H]1C[C@H](N)C[C@H](c2ccncc2NC(=O)c2ccc(F)c3cc(N4CCOCC4)cnc23)C1 [Example 10, N-{4-[(1R,3S,5S)-3-Amino-5-methylcyclohexyl]pyridin-3-yl}-5-fluoro-3-morpholin-4-ylquinoline-8-carboxamide]
- IC50 (Pim-1): ≤ 10 nM
- IC50 (Pim-2): 100 to 1000 nM
- IC50 (Pim-3): ≤ 10 nM

SMILES: C[C@@H]1C[C@H](N)C[C@H](c2ccncc2NC(=O)c2ccc(F)c3cc(N(C)C4CCOC4)cnc23)C1 (stereo partly drawn) [Example 23, N-{4-[(1R,3S,5S)-3-Amino-5-methylcyclohexyl]pyridin-3-yl}-5-fluoro-3-[methyl(tetrahydrofuran-3-yl)amino]quinoline-8-carboxamide]
- IC50 (Pim-1): ≤ 10 nM
- IC50 (Pim-2): 100 to 1000 nM
- IC50 (Pim-3): ≤ 10 nM

SMILES: C[C@@H]1C[C@H](N)C[C@H](c2ccncc2NC(=O)c2ccc(F)c3cc(-c4c(F)cc(O)cc4F)cnc23)C1 [Example 18, N-{4-[(1R,3S,5S)-3-Amino-5-methylcyclohexyl]pyridin-3-yl}-3-(2,6-difluoro-4-hydroxyphenyl)-5-fluoroquinoline-8-carboxamide]
- IC50 (Pim-1): ≤ 10 nM
- IC50 (Pim-2): ≤ 100 nM
- IC50 (Pim-3): ≤ 10 nM

SMILES: C[C@@H]1C[C@H](N)C[C@H](c2ccncc2NC(=O)c2cccc3cc(N(C)CC(F)F)cnc23)C1 [Example 72, N-(4-((1R,3S,5S)-3-Amino-5-methylcyclohexyl)pyridin-3-yl)-3-((2,2-difluoroethyl)(methyl)amino)quinoline-8-carboxamide]
- IC50 (Pim-1): ≤ 10 nM
- IC50 (Pim-2): 100 to 1000 nM
- IC50 (Pim-3): ≤ 10 nM

SMILES: C[C@@H]1C[C@H](N)C[C@H](c2ccncc2NC(=O)c2ccc(F)c3cc(N4CCC[C@@H](F)C4)cnc23)C1 [Example 2, N-{4-[(1R,3S,5S)-3-Amino-5-methylcyclohexyl]pyridin-3-yl}-5-fluoro-3-[(3,R)-3-fluoropiperidin-1-yl]quinoline-8-carboxamide]
- IC50 (Pim-1): ≤ 10 nM
- IC50 (Pim-2): ≤ 100 nM
- IC50 (Pim-3): ≤ 10 nM

SMILES: C[C@@H]1C[C@H](N)C[C@H](c2ccncc2NC(=O)c2ccc(F)c3cc(N4C[C@@H](O)C[C@H]4C)cnc23)C1 [Example 164, N-(4-((1R,3S,5S)-3-Amino-5-methylcyclohexyl]pyridin-3-yl}-5-fluoro-3-[(2R,4S)-4-hydroxy-2-methylpyrrolidin-1-yl]quinoline-8-carboxamide]
- IC50 (Pim-1): ≤ 10 nM
- IC50 (Pim-2): ≤ 100 nM
- IC50 (Pim-3): ≤ 10 nM

SMILES: CC1CN(c2cnc3c(C(=O)Nc4cnccc4[C@@H]4C[C@H](C)C[C@H](N)C4)ccc(F)c3c2)C1 [Example 111, N-(4-((1R,3S,5S)-3-Amino-5-methylcyclohexyl)pyridin-3-yl)-5-fluoro-3-(3-methylazetidin-1-yl)quinoline-8-carboxamide]
- IC50 (Pim-1): ≤ 10 nM
- IC50 (Pim-2): ≤ 100 nM
- IC50 (Pim-3): ≤ 10 nM

SMILES: C[C@@H]1C[C@H](N)C[C@H](c2ccncc2NC(=O)c2ccc(F)c3cc(N4CC5CCC4C5)cnc23)C1 (stereo partly drawn) [Example 96, N-(4-((1R,3S,5S)-3-Amino-5-methylcyclohexyl)pyridin-3-yl)-3-(2-azabicyclo[2.2.1]heptan-2-yl)-5-fluoroquinoline-8-carboxamide]
- IC50 (Pim-1): ≤ 10 nM
- IC50 (Pim-2): ≤ 100 nM
- IC50 (Pim-3): ≤ 10 nM

SMILES: CCn1cc(-c2cnc3c(C(=O)Nc4cnccc4[C@@H]4C[C@H](C)C[C@H](N)C4)ccc(F)c3c2)cn1 [Example 62, N-(4-((1R,3S,5S)-3-Amino-5-methylcyclohexyl)pyridin-3-yl)-3-(1-ethyl-1H-pyrazol-4-yl)-5-fluoroquinoline-8-carboxamide]
- IC50 (Pim-1): ≤ 10 nM
- IC50 (Pim-2): 100 to 1000 nM
- IC50 (Pim-3): ≤ 10 nM

SMILES: C[C@@H]1C[C@H](N)C[C@H](c2ccncc2NC(=O)c2ccc(F)c3cc(N4CCCOCC4)cnc23)C1 [Example 102, N-(4-((1R,3S,5S)-3-Amino-5-methylcyclohexyl)pyridin-3-yl)-5-fluoro-3-(1,4-oxazepan-4-yl)quinoline-8-carboxamide]
- IC50 (Pim-1): ≤ 10 nM
- IC50 (Pim-2): ≤ 100 nM
- IC50 (Pim-3): ≤ 10 nM

SMILES: C[C@@H]1C[C@H](N)C[C@H](c2ccncc2NC(=O)c2ccc(F)c3cc(N4CCn5cnnc5C4)cnc23)C1 [Example 134, N-(4-((1R,3S,5S)-3-Amino-5-methylcyclohexyl)pyridin-3-yl)-3-(5,6-dihydro-[1,2,4]triazolo[4,3-a]pyrazin-7(8H)-yl)-5-fluoroquinoline-8-carboxamide]
- IC50 (Pim-1): ≤ 10 nM
- IC50 (Pim-2): 100 to 1000 nM
- IC50 (Pim-3): ≤ 10 nM

- IC50 (Pim-1): ≤ 10 nM
- IC50 (Pim-2): ≤ 100 nM
- IC50 (Pim-3): ≤ 10 nM
SMILES: COC(=O)N1CCCN(c2cnc3c(C(=O)Nc4cnccc4[C@@H]4C[C@H](C)C[C@H](N)C4)ccc(F)c3c2)CC1 [Example 126, Methyl 4-(8-(4-((1R,3S,5S)-3-amino-5-methylcyclohexyl)pyridin-3-ylcarbamoyl)-5-fluoroquinolin-3-yl)-1,4-diazepane-1-carboxylate]

SMILES: CC1CCCCN1c1cc2c(F)ccc(C(=O)Nc3cnccc3[C@@H]3C[C@H](C)C[C@H](N)C3)c2nn1 (stereo partly drawn) [Example 93, N-{4-[(1R,3S,5S)-3-Amino-5-methylcyclohexyl]pyridin-3-yl}-5-fluoro-3-(2-methylpiperidin-1-yl)cinnoline-8-carboxamide]
- IC50 (Pim-1): ≤ 10 nM
- IC50 (Pim-2): ≤ 100 nM
- IC50 (Pim-3): ≤ 10 nM

SMILES: C[C@@H]1C[C@H](N)C[C@H](c2ccncc2NC(=O)c2ccc(F)c3cc(N4CCC(C#N)CC4)cnc23)C1 [Example 45, N-(4-((1R,3S,5S)-3-Amino-5-methylcyclohexyl)pyridin-3-yl)-3-(4-cyanopiperidin-1-yl)-5-fluoroquinoline-8-carboxamide]
- IC50 (Pim-1): ≤ 10 nM
- IC50 (Pim-2): 100 to 1000 nM
- IC50 (Pim-3): 10 to 50 nM

SMILES: CC(C)[C@H](C)Nc1cnc2c(C(=O)Nc3cnccc3[C@@H]3C[C@H](C)C[C@H](N)C3)ccc(F)c2c1 [Example 53, N-(4-((1R,3S,5S)-3-Amino-5-methylcyclohexyl)pyridin-3-yl)-5-fluoro-3-((S)-3-methylbutan-2-ylamino)quinoline-8-carboxamide]
- IC50 (Pim-1): ≤ 10 nM
- IC50 (Pim-2): 100 to 1000 nM
- IC50 (Pim-3): ≤ 10 nM

SMILES: C[C@@H]1C[C@H](N)C[C@H](c2ccncc2NC(=O)c2ccc(F)c3cc(N4C5CCCC4COC5)cnc23)C1 [Example 106, N-(4-((1R,3S,5S)-3-Amino-5-methylcyclohexyl)pyridin-3-yl)-3-(3-oxa-9-azabicyclo[3.3.1]nonan-9-yl)-5-fluoroquinoline-8-carboxamide]
- IC50 (Pim-1): ≤ 10 nM
- IC50 (Pim-2): ≤ 100 nM
- IC50 (Pim-3): ≤ 10 nM

— patent US9920032B2, “Heterocyclic compounds useful as pim kinase inhibitors” (Incyte Corporation, priority 2015, dated 2018)
